What was measured:
Type in all cases: in vivo
[1] = system: Fragaria ananassa; assay: Cultivation of Fragaria ananassa with GSSG or GSH, sensory tests of fruit (Example 10); conditions: 63 days
Procedure: In the present example, Fragaria ananassa was cultivated with use of GSSG or GSH. Details of cultivation are described below.
First, Fragaria ananassa seedlings were transplanted to a planter. In the planter, 6 L of vermiculite (ASAHI INDUSTRIES Co., LTD.), 3 L of KUREHA horticultural soil (KUREHA CORPORATION), and 3 L of vermiculite were layered as a lower, middle, and upper layers, respectively.
During cultivation of Fragaria ananassa plants, 50 mL of 0.2 mM or 0.5 mM GSSG or 50 mL of 0.4 mM or 0.5 mM GSH (adjusted with 0.1N NaOH to be at pH7) was applied once a week at a root per plant. The plants were grown for 63 days without being subjected to bud removal. For comparison, a Fragaria ananassa plant was grown under the same condition, except that GSSG and GSH were not applied. To the plants of any condition, 3 g of Kumiai phosphorate ammonium nitrate potassium S-604 (Chisso Asahi Fertilizer Co., Ltd.) was applied as an additional fertilizer once in 2 weeks.
Next, the fruit harvested was subjected to sensory tests of sugar content and the like. As a result, it was determined that fruit of the plant applied with GSSG increased in sugar content and decreased in acidity compared to that of the plant not applied with GSSG or GSH. Further, it was determined that the plant applied with GSSG increased in number of fruit. It was also determined that fruit of the plant applied with GSH increased in sugar content and acidity.

[2] = system: Prunus avium (Napoleon); assay: Prunus avium leaf coating with GSSG, sensory test of fruit (Example 8); conditions: leaf surface coated with 0.5 mM 4 weeks and 3 weeks before harvest
Procedure: (§1) In the present example, Prunus avium was cultivated. Specifically, 4 weeks and 3 weeks before an expected date of harvesting Prunus avium (Napoleon) fruit, a surface of a leaf on a branch having the fruit to be harvested was coated with 0.5 mM GSSG. The fruit was harvested on the expected date.
(§2) Next, the fruit harvested was subjected to a sensory test of sugar content. As a result, it was determined that the fruit applied with GSSG increased in sugar content and decreased in acidity. Further, it was determined that the fruit applied with GSSG increased in weight. Furthermore, the fruit obtained was subjected to sugar content determination using “Pocket” Refractometer APAL-1 (ATAGO CO., LTD.). For comparison, fruit applied with no GSSG was also subjected to the sugar content determination. […] In FIG. 5, the vertical scale indicates sugar content (Brix, unit: %).

[3] = system: Citrus unshiu; assay: Citrus unshiu leaf coating with GSSG, sensory test of fruit (Example 9); conditions: leaf surface coated with 0.5 mM one week before harvest
Procedure: In the present example, Citrus unshiu was cultivated. Specifically, one week before an expected date of harvesting Citrus unshiu fruit, a surface of a leaf on a branch having the fruit to be harvested was coated with 0.5 mM GSSG. The fruit was harvested on the expected date.
Next, the fruit harvested was subjected to a sensory test of sugar content. As a result, it was determined that the fruit applied with GSSG increased in sugar content and decreased in acidity. Further, it was determined that the fruit applied with GSSG increased in weight. Furthermore, the fruit obtained was subjected to sugar content determination using “Pocket” Refractometer APAL-1 (ATAGO CO., LTD.). For comparison, fruit applied with no GSSG was also subjected to the sugar content determination. […] In FIG. 6, the vertical scale indicates sugar content (Brix, unit: %).

[4] = system: Prunus avium (Napoleon); assay: Sugar content determination of Prunus avium fruit with refractometer (Example 8); conditions: leaf surface coated with 0.5 mM 4 and 3 weeks before harvest; vs no GSSG; ANOVA 5%
Procedure: as §1, §2

[5] = system: Zea mays L. var. saccharata Sturt; assay: Cultivation of Zea mays L. var. saccharata Sturt with GSSG leaf spray, sensory test (Example 11)
Description: In the present example, Zea mays L. var. saccharata Sturt was cultivated. First, a Zea mays L. var. saccharata Sturt seed (TAKII & CO. Ltd., product number: Canberra 86) was sown in vermiculite (ASAHI INDUSTRIES Co., LTD.). Two weeks after sowing, a Zea mays L. var. saccharata Sturt plant was transplanted to a hydroponic culture pot described in Example 1. To the plant, 3 g of Kumiai phosphorate ammonium nitrate potassium S-604 (Chisso Asahi Fertilizer Co., Ltd.) was applied as an additional fertilizer 4 weeks and 6 weeks after the sowing.
In the 5th, 6th, 7th, and 8th week after the sowing, 0.5 mM GSSG (dissolved in 0.1% Tween80 serving as a spreading agent) was sprayed onto a leaf surface. For comparison, a Zea mays L. var. saccharata Sturt plant was cultivated by the same method as in the present example, except that Tween80, but not GSSG, was applied, and fruit thereof was harvested.
Fruit was harvested 86 days after the sowing and subjected to a sensory test of sugar content. As a result, it was determined that fruit of the plant applied with GSSG increased in sugar content compared to that of the plant applied with no GSSG. Further, the fruit obtained was subjected to sugar content determination using “Pocket” Refractometer APAL-1 (ATAGO CO., LTD.). For comparison, the fruit of the plant applied with no GSSG was also subjected to the sugar content determination. […] In FIG. 8, the vertical scale indicates sugar content (Brix, unit: %).
It was also determined that the plant applied with GSSG increased in size and number of fruit. Further, it was determined that the fruit of the plant applied with GSSG was already able to be harvested 70 days after the sowing.

[6] = 0.5 mM in 0.1% Tween80 sprayed onto leaf surface in weeks 5-8

With oxidized glutathione [GSSG] the number of fruit ([1]; 50 mL of 0.2 or 0.5 mM GSSG once a week at root) was “increased”, the “acidity of fruit (sensory test)” value ([1]; 50 mL of 0.2 or 0.5 mM GSSG, or 0.4 or 0.5 mM GSH, once a week at root) was “decreased” and the “sugar content of fruit (sensory test)” value ([1]; 50 mL of 0.2 or 0.5 mM GSSG, or 0.4 or 0.5 mM GSH, once a week at root, vs plant not applied) was “increased”. For the same substance, the “acidity of fruit (sensory test)” value [2] was “decreased”, the “sugar content of fruit (sensory test)” value [2] was “increased” and the weight of fruit [2] was “increased”. The “acidity of fruit (sensory test)” value [3] was “decreased”, the “sugar content of fruit (sensory test)” value [3] was “increased” and the weight of fruit [3] was “increased”. For the same substance, the “sugar content of fruit (Brix)” value [4] was “significantly improved”, the number of fruit [5, 6] was “increased” and the size of fruit [5, 6] was “increased”. For the same substance, the “time at which fruit was already able to be harvested” value [5, 6] was 70 days after the sowing and the “sugar content of fruit (sensory test)” value ([5]; 0.5 mM in 0.1% Tween80 sprayed onto leaf surface in weeks 5-8 after sowing, harvest 86 days, vs Tween80 only) was “increased”.
